Source: patent US7202093B2, “Method for labeling phosphorylated peptides, method for selectively adsorbing phosphorylated peptides, complex compounds used in the methods, process for producing the complex compounds, and raw material compounds for the complex compounds” (Kabushiki Kaisha Nard Kenkyusho, priority 2003, dated 2007)
No end group written: not given here.

Experiments:
Assay type in all cases: binding
[1] = tested on: α-casein (phosphorylated), β-casein (phosphorylated), pepsin (phosphorylated); assay: 10% native-polyacrylamide gel electrophoresis, gel stained and imaged by fluoro image analyzer (Experimental Example 3); conditions: ten protein samples
Experimental: First, prepared were gels for electrophoresis, pH buffer for electrophoresis, and a coloring solution for dissolving samples under the same condition as in Experimental Example 1.
Next, 2 μg each of 1: Bovine Serum Albumin, 2: Human Serum Albumin, 3: carbonic anhydrase, 4: β-galactosidase, 5: α-casein (phosphorylated), 6: α-casein (de-phosphorylated), 7: β-casein (phosphorylated), 8: β-casein (de-phosphorylated), 9: pepsin (phosphorylated), and 10: pepsin (de-phosphorylated) was dissolved in the coloring solution to prepare samples. The respective samples were plotted on the gel. Then, a constant electric current of 40 mA was applied until the coloring marker was flowed.
The obtained gel was immersed in a 10 mM Tris-acetate buffer (pH=7.4) containing 1 μM of N,N,N′-tri(2-pyridylmethyl)-N′-[5-N″-(2-N-5-fluoresceinylthioureidoethyl)carbamoyl-2-pyridylmethyl]-1,3-diamopropane-2-ol obtained in Production Example 8-1 and 100 μM zinc acetate for 30 minutes. Thereafter, the gel was taken out from the solution. This gel was washed with 100 mL of 10 mM Tris-acetate buffer (pH=7.4) for 10 minutes twice. Thereafter, a fluorescent image of the gel was photographed by using a fluoro image analyzer FLA-5000 (Fuji Photo Film Co., Ltd.) at an excitation wavelength of 473 nm with use of a fluorescence detecting filter of 510 nm. […]

[2] = tested on: inventive complex compound (compound of Production Example 3-1 + zinc acetate) bonded to Streptavidin agarose; assay: Selective adsorption of peptides on Streptavidin agarose carrying the inventive zinc complex, fractions quantified by HPLC (Experimental Example 2); conditions: for isolation/recovery rate of the peptide to the total amount, fraction 1: filtrate of sample in 5.0 mM Tris-acetate buffer pH 7.4; for isolation/recovery rate of the peptide to the total amount, fraction 1 / isolation/recovery rate of the peptide to the total amount, fraction 5 / isolation/recovery rate of the peptide to the total amount, fraction 2 / isolation/recovery rate of the peptide to the total amount, fraction 6 / isolation/recovery rate of the peptide to the total amount, fraction 3 / isolation/recovery rate of the peptide to the total amount, fraction 4: agarose with zinc complex of Production Example 3-1; for isolation/recovery rate of the peptide to the total amount, fraction 5: first filtration with 1.0 mM phosphoric acid-sodium hydroxide buffer pH 7.4, 0.50M NaNO3; for isolation/recovery rate of the peptide to the total amount, fraction 2: first filtration with 5.0 mM Tris-acetate buffer pH 7.4, 0.50M NaNO3; for isolation/recovery rate of the peptide to the total amount, fraction 6: second filtration with 1.0 mM phosphoric acid-sodium hydroxide buffer pH 7.4, 0.50M NaNO3; for isolation/recovery rate of the peptide to the total amount, fraction 3: second filtration with 5.0 mM Tris-acetate buffer pH 7.4, 0.50M NaNO3; for isolation/recovery rate of the peptide to the total amount, fraction 4: third filtration with 5.0 mM Tris-acetate buffer pH 7.4, 0.50M NaNO3
Experimental: (§1) The suspension (0.3 mL) containing Streptavidin agarose (quantity of the bonded moiety of biotin: 60 to 120 nmol/mL) and a buffer (Sigma-Aldrich Co.) was charged in a centrifugal filter unit (volume: 0.5 mL filter pore diameter: 0.22 μm). The filter unit was subjected to centrifugal separation at centrifugal acceleration of 2,000×g for 15 seconds, followed by filtration of the suspension. 5.0 mM Tris-acetate buffer (pH=7.4, 0.30 mL) was charged in the filter unit, then the filter unit was subjected to centrifugal separation at 2,000×g for 15 seconds and filtration for washing. This centrifugal separation and filtration step for washing was cyclically repeated for 5 times.
To the filter unit, charged was 5.0 mM Tris-acetate buffer (pH=7.4, 0.30 mL) dissolving 120 nmol/mL of the compound obtained in Production Example 3-1 and 500 nmol/mL of zinc acetate. The filter unit was brought to an equilibrium state for 5 minutes, and then, subjected to centrifugal separation at 2,000×g for 15 seconds and filtration. Next, 5.0 mM Tris-acetate buffer (pH=7.4, 0.30 mL) was charged in the filter unit, and subjected to centrifugal separation at 2,000×g for 15 seconds and filtration for washing. This centrifugal separation and filtration step for washing was cyclically repeated for 5 times. Further, 5.0 mM Tris-acetate buffer (pH=7.4, 0.30 mL) dissolving 10 nmol/mL of zinc acetate was charged in the filter unit, and subjected to centrifugal separation at 2,000×g for 15 seconds and filtration for washing. This centrifugal separation and filtration step for washing was cyclically repeated for 5 times.
To the filter unit, charged was 5.0 mM Tris-acetate buffer (pH=7.4, 0.30 mL) dissolving non-phosphorylated peptide p60c (p60c-src peptide 521–533, 14 nmol/mL) and phosphorylated peptide P-p60c (O-phosphoryl p60c-src peptide 521–533, 12 nmol/mL), as samples. The filter unit was brought to an equilibrium state for 5 minutes, and then, subjected to centrifugal separation at 2,000×g for 15 seconds and filtration. The obtained filtrate was taken out as a fraction 1.
Next, 5.0 mM Tris-acetate buffer (pH=7.4, 0.50M NaNO3, 0.30 mL) was charged in the filter unit, and the filter unit was subjected to centrifugal separation at 2,000×g for 15 seconds and filtration for 3 times. The filtrate obtained after the first filtration was taken out as a fraction 2, the filtrate after the second filtration was taken out as a fraction 3, and the filtrate after the third filtration was taken out as a fraction 4.
Furthermore, 1.0 mM buffer containing phosphoric acid-sodium hydroxide (pH=7.4, 0.50M NaNO3, 0.30 mL) was charged in the filter unit, and the filter unit was subjected to centrifugal separation at 2,000×g for 15 seconds and filtration for 2 times. The filtrate obtained after the first filtration was taken out as a fraction 5, and the filtrate after the second filtration was taken out as a fraction 6.
The contents of the peptide in the respective fractions 1 through 6 were quantitatively determined by high performance liquid chromatography (HPLC).
(§2) Analyzing conditions according to HPLC: • column: Capcell Pak C18 type UG80, 4.6 mm (diameter)×150 mm • mobile phase: acetonitrile:water=14:86(v/v), 0.1%(v/v) of trifluoroacetic acid • flow rate: 1 mL/min. • column temperature: 40° C. • detecting method: UV 266 nm • retention time: P-p60c (5.3 min.). p60c (13.4 min.)

Streptavidin agarose = biological target: T1, Streptavidin agarose (Streptomyces avidinii, UniProt P22629); assay: Same fractionation on Streptavidin agarose without the inventive complex compound (Comparative Example 1); conditions: inventive complex compound not included; for isolation/recovery rate of the peptide, fraction 7: step as fraction 1 (sample filtrate, Tris-acetate pH 7.4); for isolation/recovery rate of the peptide, fraction 8: step as fraction 2 (Tris-acetate, 0.50M NaNO3, first); for isolation/recovery rate of the peptide, fraction 9: step as fraction 3 (Tris-acetate, 0.50M NaNO3, second); for isolation/recovery rate of the peptide, fraction 10: step as fraction 4 (Tris-acetate, 0.50M NaNO3, third); for isolation/recovery rate of the peptide, fraction 11: step as fraction 5 (phosphate buffer, first); for isolation/recovery rate of the peptide, fraction 12: step as fraction 6 (phosphate buffer, second)
T1 construct: purchased Sigma-Aldrich Co
Experimental: as §2
as §1, with “of biotin;” for “of biotin:”, “0.5 mL,” for “0.5 mL”, “at” for “at centrifugal acceleration of”, “suspension. Then,” for “suspension.”, “unit, and” for “unit, then”
A process similar to the process in Experiment Example 2 was conducted with use of samples equivalent to the samples used in Experimental Example 2, using a filter unit (in this Comparative Example, the inventive complex compound was not included). Thus, fractions 7 through 12 were obtained.
HPLC analysis was conducted with respect to the fractions 7 through 12 in a similar manner as Experimental Example 2.

T1 sequence (P22629 25-183): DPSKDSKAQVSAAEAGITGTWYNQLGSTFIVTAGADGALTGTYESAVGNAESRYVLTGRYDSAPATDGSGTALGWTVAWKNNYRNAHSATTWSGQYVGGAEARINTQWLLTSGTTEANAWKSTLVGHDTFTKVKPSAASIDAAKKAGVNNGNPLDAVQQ

Compound | identification (fluorescent labeling) of proteins in the gel ([1]; 1 μM compound + 100 μM zinc acetate, 10 mM Tris-acetate pH 7.4, 30 minutes, excitation 473 nm, FIG. 9 gel A) | dyeing of proteins in the gel by the conventional dyeing process ([1]; same gel, FIG. 9 gel B) | selective adsorption of phosphorylated peptide ([2]; mixed sample of P-p60c and p60c, complex formed with zinc acetate, bonded to Streptavidin agarose) | isolation/recovery rate of the peptide to the total amount, fraction 1 [2] [%] | isolation/recovery rate of the peptide to the total amount, fraction 5 [2] [%] | isolation/recovery rate of the peptide to the total amount, fraction 2 [2] [%] | isolation/recovery rate of the peptide to the total amount, fraction 6 [2] [%] | isolation/recovery rate of the peptide to the total amount, fraction 3 [2] [%] | isolation/recovery rate of the peptide to the total amount, fraction 4 [2] [%] | isolation/recovery rate of the peptide, fraction 7 (Streptavidin agarose) [%] | isolation/recovery rate of the peptide, fraction 8 (Streptavidin agarose) [%] | isolation/recovery rate of the peptide, fraction 9 (Streptavidin agarose) [%] | isolation/recovery rate of the peptide, fraction 10 (Streptavidin agarose) [%] | isolation/recovery rate of the peptide, fraction 11 (Streptavidin agarose) [%] | isolation/recovery rate of the peptide, fraction 12 (Streptavidin agarose) [%]
O=C(NCCNC(=S)Nc1ccc(-c2c3ccc(=O)cc-3oc3cc(O)ccc23)c(C(=O)O)c1)c1ccc(CN(Cc2ccccn2)CC(O)CN(Cc2ccccn2)Cc2ccccn2)nc1 (stereo not drawn) [Production Example 8-1, N,N,N′-Tri(2-pyridylmethyl)-N′-[5-N″-(2-N-5-fluoresceinylthioureidoethyl)carbamoyl-2-pyridylmethyl]-1,3-diaminopropane-2-ol] | only 5: α-casein (phosphorylated), 7: β-casein (phosphorylated) and 9: pepsin (phosphorylated) to all of which the phosphoric acid has been bonded were identified exclusively | – | – | – | – | – | – | – | – | – | – | – | – | – | –
Coomassie brilliant blue | – | all the peptides were dyed | – | – | – | – | – | – | – | – | – | – | – | – | –
N,N,N′-Tri(2-pyridylmethyl)-N′-[5-N″-2-(6-D-biotinamidohexacarboxyamidoethyl)carbamoyl-2-pyridylmethyl]-1,3-diaminopropane-2-ol [Production Example 3-1] | – | – | can adsorb selectively a phosphorylated peptide | – | – | – | – | – | – | – | – | – | – | – | –
P-p60c: phosphorylated peptide P-p60c (O-phosphoryl p60c-src peptide 521–533) (DYFTSTEPQYQPG; also: O-phosphotyrosine, position not given here; UniProt P12931 521-533, looked up, fragment) | – | – | – | 0 | 83 | 0 | 17 | 0 | 0 | 83 | 17 | 0 | 0 | 0 | 0
p60c: non-phosphorylated peptide p60c (p60c-src peptide 521–533) (DYFTSTEPQYQPG; UniProt P12931 521-533, looked up, fragment) | – | – | – | 67 | 0 | 24 | 0 | 9 | 0 | 75 | 20 | 5 | 0 | 0 | 0
